The record followed here is patent publication US20060069095A1, “Azole derivatives” (priority 2004, published 2006).

For one test, the system named is HEK293 cells. Description: CellTiter-Glo Luminescent Cell Viability Assay in HEK293 cells. Particulars: Homo sapiens, 168 h, 7 days incubation, 3 μM to 0.00015 μM. It counts as cell-based. The text has this:
CellTiter-Glo™ Assay in HEK293 Cells
The CellTiter-Glo™ Luminescent Cell Viability Assay (Promega) is a homogeneous method of determining the number of viable cells in culture based on quantitation of the ATP present, which signals the presence of metabolically active cells.
HEK293 cells (human embryonic kidney cell line transformed by Adenovirus 5 fragments, ATCC-No. CRL 1573) were cultivated in Dulbecco's Modified Eagle Medium (DMEM) with Glutamax™ (Invitrogen, 31966-021), 5% Fetal Calf Serum (FCS, Sigma Cat-No. F4135 (FBS)), 100 Units/ml penicillin/100 μg/ml streptomycin (=Pen/Strep from Invitrogen Cat. No. 15140)., For the assay the cells were seeded in 384 well plates, 5000 cells per well, in the same medium. The next day the test compounds were added in various concentrations ranging from 3 μM to 0.00015 μM (10 concentrations, 1:3 diluted). After 7 days the CellTiter-Glo™ assay was done according to the instructions of the manufacturer (CellTiter-Glo™ Luminescent Cell Viability Assay, from Promega). In brief: the cell-plate was equilibrated to room temperature for approximately 30 minutes and than the CellTiter-Glo™ reagent was added. The contents were carefully mixed for 15 minutes to induce cell lysis. After 45 minutes the luminescent signal was measured in Victor 2, (scanning multiwell spectrophotometer, Wallac).
Medium: Dulbecco's Modified Eagle Medium (DMEM) with Glutamax™ (Invitrogen, 31966-021), 5% Fetal Calf Serum (FCS, Sigma Cat-No. F4135 (FBS)), Pen/Strep (Invitrogen Cat. No. 15140).
Incubate 24 h at 37° C., 5% CO2
2nd Day: Induction (Substance Testing):
In general the dilution steeps are 1:3 • a) Add 8 μl of 10 mM stock solution of compound to 72 μl DMSO • b) dilute 9×1:3 (always 30 μl to 60 μl DMSO) in this DMSO dilution row (results in 10 wells with concentrations from 1000 μM to 0.06 μM) • c) dilute each concentration 1:4.8 (10 μl compound dilution to 38 μl medium) • d) dilute each concentration 1:10 (10 μl compound dilution to 90 μl medium) • e) add 10 μl of every concentration to 60 μl medium in the cell plate • resulting in final concentration of DMSO: 0.3% in every well • and resulting in final concentration of compounds from 3 μM to 0.00015 μM • Incubate 168 h (7 days) at 37° C., 5% CO2
Analysis: • Add 30 μl CellTiter-Glo™ Reagent/well, • shake 15 minutes at room temperature • incubate further 45 minutes at room temperature without shaking.
Measurement: • Victor 2 scanning multiwell spectrophotometer (Wallac), Luminescence mode • Determine IC50 with XL-fit (XLfit software (ID Business Solution Ltd., Guilford, Surrey, UK)).

Another test has as its system A549 cells. The test can be described thus: MTT assay in A549 cells. Particulars: Homo sapiens, 120 h, 5 days incubation, 3 μM to 0.15 nM. It counts as cell-based, human. How it is done:
To further show the activity of the compounds according to this invention, their effects on a […] was evaluated using a standard MTT-assay. MTT (3-(4,5-dimethylthiazol-2-yl)-2,5-diphenyl tetrazolium bromide) is widely used for the quantitative determination of cytotoxic effects or in vitro chemosensitivity of tumor cells. The assay is based on the cleavage of the yellow tetrazolium salt (MTT) to purple formazan crystals by metabolic active cells. For details, see Rubinstein, L. V., et al., J. Natl. Cancer Inst. 82 (1990) 1113-1118.
A549 cells (human lung carcinoma cell line ATTC-No. CCL-185) were cultivated in RPMI (Roswell Park Memorial Institute) 1640 medium with GlutaMAX™ I (Invitrogen, Cat-No. 61870-010), 2,5% Fetal Calf Serum (FCS, Sigma Cat-No. F4135 (FBS)); 100 Units/ml penicillin/100 μg/ml streptomycin (=Pen/Strep from Invitrogen Cat. No. 15140). For the assay the cells were seeded in 384 well plates, 900 cells per well, in the same medium. The next day compounds (dissolved 10 mM in dimethylsulfoxide (DMSO)) were added in various concentrations ranging from 3 μM to 0.15 nM (10 concentrations, 1:3 diluted). After 5 days MTT assay was done mainly according to the instructions of the manufacturer (Cell proliferation kit I, MTT, from Roche Molecular Biochemicals). In brief: MTT labeling reagent (3-(4,5-dimethylthiazol-2-yl)-2,5-diphenyltetrazolium bromide (MTT)) was added to a final concentration of 0.5 mg/ml, added and incubated for 4 hrs at 37° C., 5% CO2. During this incubation time purple formazan crystals are formed. After addition of the solubilization solution (20% Sodium Dodecyl Sulfate (SDS) in 0.02 M HCl) the plates were incubated overnight at 37° C., 5% CO2. After careful mixing plates were measured in Victor 2 scanning multiwell spectrophotometer (Wallac) at 550 nm.
A decrease in number of living cells results in a decrease in the total metabolic activity in the sample. The decrease directly correlates to the amount of purple color resulting from the solubilization of the purple formazan crystals.
• A549: 900 cells in 60 μl per well of 384 well plate (Greiner) • Medium: RPMI 1640, 2.5% FCS, glutamine, Pen/Strep. • Incubate 1 day at 37° C.
Induction: • Dilution of compound in DMSO: 3 μl 10 mM+27 μl DMSO, dilute 1:3 • Add 2 μl of compound dilution row to 95 μl of medium • Add 10 μl of compound dilution to 60 μl medium in test plate resulting in 0.3% DMSO per well • Incubate 120 h (5 days) at 37° C., 5% CO2
Analysis: • Add 7 μl MTT (5 mg/7 ml/well), incubate 4 h at 37° C. • Add 30 μl lysis buffer (20% SDS, 0.04 N HCl) per well • Incubate overnight at 37° C.
Measurement: • Victor 2 scanning multiwell spectrophotometer (Wallac) at 550 nm
Determination of IC50 was done using XL-fit (XLfit software (ID Business Solution Ltd., Guilford, Surrey, UK)).

For `CC(C)([PH2]=O)n1ncc(CCCCc2ccc(OCc3coc(/C=C/c4ccc(OC(F)(F)F)cc4)n3)cc2)n1` [Example 1.18, 2-(Dimethyl-phosphinoylmethyl)-4-[4-(4-{2-[(E)-2-(4-trifluoromethoxy-phenyl)-vinyl]-oxazol-4-ylmethoxy}-phenyl)-butyl]-2H-[1,2,3]triazole], the 50% inhibitory concentration (IC50) in the test on HEK293 cells was 5 to 250 nM.
For `Cn1ncc(CCCCc2ccc(OCc3coc(/C=C/c4ccc(OC(F)(F)F)cc4)n3)cc2)n1` [Example 1.3, 2-Methyl-4-[4-(4-{2-[(E)-2-(4-trifluoromethoxy-phenyl)-vinyl]-oxazol-4-ylmethoxy}-phenyl)-butyl]-2H-[1,2,3]triazole], in the test with A549 cells, the half-maximal inhibitory concentration (IC50) lay in the range of 5 to 200 nM.
`Cn1cc(CCCCc2ccc(OCc3coc(/C=C/c4ccc(OC(F)(F)F)cc4)n3)cc2)nn1` [Example 1.4, 1-Methyl-4-[4-(4-{2-[(E)-2-(4-trifluoromethoxy-phenyl)-vinyl]-oxazol-4-ylmethoxy}-phenyl)-butyl]-1H-[1,2,3]triazole]: the 50% inhibitory concentration (IC50) with HEK293 cells lay within 5 to 250 nM; with A549 cells it was 5 to 200 nM.
In the test with A549 cells, `OCCn1nnc(CCCCc2ccc(OCc3coc(C=Cc4ccc(OC(F)(F)F)cc4)n3)cc2)n1` [Example 2.5, 2-{5-[4-(4-{2-[2-(4-Trifluoromethoxy-phenyl)-vinyl]-oxazol-4-ylmethoxy}-phenyl)-butyl]-tetrazol-2-yl}-ethanol] came in with an IC50 of 5 to 200 nM.
Regarding `FC(F)(F)Oc1ccc(/C=C/c2nc(COc3ccc(CCCCc4c[nH]nn4)cc3)co2)cc1` [Example 1.1, 4-[4-(4-{2-[(E)-2-(4-Trifluoromethoxy-phenyl)-vinyl]-oxazol-4-ylmethoxy}-phenyl)-butyl]-1H-[1,2,3]triazole], the 50% inhibitory concentration (IC50) in the test on HEK293 cells is 128 nM; in the test with A549 cells, 200 to 1000 nM.
Regarding `FC(F)(F)Oc1ccc(/C=C/c2nc(COc3ccc(CCCCc4nn[nH]n4)cc3)co2)cc1` [Example 2.1, 5-[4-(4-{2-[(E)-2-(4-Trifluoromethoxy-phenyl)-vinyl]-oxazol-4-ylmethoxy}-phenyl)-butyl]-2H-tetrazole], the values for the IC50 with HEK293 cells and with A549 cells were 250 to 1500 nM and 200 to 1000 nM, respectively.
For `Cn1nnnc1CCCCc1ccc(OCc2coc(/C=C/c3ccc(OC(F)(F)F)cc3)n2)cc1` [Example 2.2, Methyl-5-[4-(4-{2-[(E)-2-(4-trifluoromethoxy-phenyl)-vinyl]-oxazol-4-ylmethoxy}-phenyl)-butyl]-1H-tetrazole] the same measures were 5 to 250 nM and 17 nM.
`FC(F)(F)Oc1ccc(/C=C/c2nc(COc3ccc(CCCCc4cnn(CCN5CCOCC5)n4)cc3)co2)cc1` [Example 1.19, 4-(2-{4-[4-(4-{2-[(E)-2-(4-Trifluoromethoxy-phenyl)-vinyl]-oxazol-4-ylmethoxy}-phenyl)-butyl]-[1,2,3]triazol-2-yl}-ethyl)-morpholine] yielded an IC50 with HEK293 cells of 5 to 250 nM.
The same measure, in the same setting: then `OCCn1nncc1CCCCc1ccc(OCc2coc(/C=C/c3ccc(OC(F)(F)F)cc3)n2)cc1` [Example 1.7, 2-{5-[4-(4-{2-[(E)-2-(4-Trifluoromethoxy-phenyl)-vinyl]-oxazol-4-ylmethoxy}-phenyl)-butyl]-[1,2,3]triazol-1-yl}-ethanol], with 5 to 250 nM.
The same measure, in the same setting: then `N#CCn1nncc1CCCCc1ccc(OCc2coc(/C=C/c3ccc(OC(F)(F)F)cc3)n2)cc1` [Example 1.16, {5-[4-(4-{2-[(E)-2-(4-Trifluoromethoxy-phenyl)-vinyl]-oxazol-4-ylmethoxy}-phenyl)-butyl]-[1,2,3]triazol-1-yl}-acetonitrile], with 250 to 1500 nM; and `N#CCn1ncc(CCCCc2ccc(OCc3coc(/C=C/c4ccc(OC(F)(F)F)cc4)n3)cc2)n1` [Example 1.14, {4-[4-(4-{2-[(E)-2-(4-Trifluoromethoxy-phenyl)-vinyl]-oxazol-4-ylmethoxy}-phenyl)-butyl]-[1,2,3]triazol-2-yl}-acetonitrile], with 250 to 1500 nM.
As to `OCCn1nnnc1CCCCc1ccc(OCc2coc(C=Cc3ccc(OC(F)(F)F)cc3)n2)cc1` [Example 2.4, 2-{5-[4-(4-{2-[2-(4-Trifluoromethoxy-phenyl)-vinyl]-oxazol-4-ylmethoxy}-phenyl)-butyl]-tetrazol-1-yl}-ethanol], the IC50 in the test on HEK293 cells lay within 250 to 1500 nM; in the test on A549 cells, 200 to 1000 nM.
Turning to `CC(C)([PH2]=O)n1cc(CCCCc2ccc(OCc3coc(/C=C/c4ccc(OC(F)(F)F)cc4)n3)cc2)nn1` [Example 1.17, 1-(Dimethyl-phosphinoylmethyl)-4-[4-(4-{2-[(E)-2-(4-trifluoromethoxy-phenyl)-vinyl]-oxazol-4-ylmethoxy}-phenyl)-butyl]-1H-[1,2,3]triazole], the IC50 in the test with HEK293 cells was 250 to 1500 nM.
The molecule `OCCn1cc(CCCCc2ccc(OCc3coc(/C=C/c4ccc(OC(F)(F)F)cc4)n3)cc2)nn1` [Example 1.6, 2-{4-[4-(4-{2-[(E)-2-(4-Trifluoromethoxy-phenyl)-vinyl]-oxazol-4-ylmethoxy}-phenyl)-butyl]-[1,2,3]triazol-1-yl}-ethanol] showed an IC50 in the test on HEK293 cells of 166 nM. This counts as sub-micromolar.
With `Cn1nnc(CCCCc2ccc(OCc3coc(/C=C/c4ccc(OC(F)(F)F)cc4)n3)cc2)n1` [Example 2.3, Methyl-5-[4-(4-{2-[(E)-2-(4-trifluoromethoxy-phenyl)-vinyl]-oxazol-4-ylmethoxy}-phenyl)-butyl]-2H-tetrazole], in the test with A549 cells, the 50% inhibitory concentration (IC50) lay within 5 to 200 nM.
